Experimental findings from patent US20050182129A1, “Hair growth tonic” (priority 2002, published 2005) are described below.

“Also recorded” adds a separate entry of the source.

Test [1] relates to WNT-5A mRNA. As to the kind of experiment: Activity of decreasing WNT-5A mRNA amount (QuantiGene bDNA method), Test Example 4. The following applies: Homo sapiens, Human dermal papilla cell, 24 h, human dermal papilla cells, concentration at which the mRNA amount is halved, average of 2 wells. The class given is cell-based. As to the method: (§1) Human dermal papilla cells, which were purchased from Toyobo, were cultured in MEM (Invitrogen) containing 12% FBS.
(§2) The dermal papilla cells in passage 5 were sowed in a 96-well plate to give a density of 1×10^4 cells/well and cultured overnight. Then, the medium was replaced by a medium to which no compound was added or a medium containing the compounds and the culture was continued for additional 24 hours. After the completion of the culture, WNT-5A or GAPDH mRNA amount was measured by using QuantiGene High Volume Kit (Bayer Medical) by the branched DNA (bDNA) signal amplification method (Drug Metabolism and Disposition, 28(5), 608-616 (2000)). In accordance with the protocol attached to QuantiGene High Volume Kit, cells were lysed by using Lysis Mixture and the lysis solution was added to capture plate. Next, a set of probes specific to WNT-5A or GPDH was added and allowed to react at 53° C. for 20 hours. After washing the plate by using 0.1×SSC containing 0.03% lauryl sulfate, an amplification probe comprising bDNA was added and allowed to react at 46° C. for 1 hour. After washing the plate, a labeling probe labeled with alkaline phosphatase was added and allowed to react at 46° C. for 1 hour. After washing the plate, a substrate Lumi-Phos Plus was added and allowed to react at 46° C. for 30 minutes. Then, the luminescence was measured by using WALLAC 1420ARVOsx.
The WNT-5A-specific probe set was designed based on the sequence of the coding region of human WNT-5A mRNA. As capture extenders (CEs), 10 probes (SEQ ID NOs:12 to 21) were used; as label extenders (LEs), 31 probes (SEQ ID NOs:22 to 52) were employed; and as blockers, […] (SEQ ID NOs:53 to 60) were employed.
(§3) The amounts of WNT-5A and GAPDH mRNAs are expressed in relative values (%) to the control case of adding of no compound and the concentration of a compound at which the mRNA amount is halved (IC50) is calculated as an index of WNT-5A mRNA decreasing activity of the corresponding compound.

Test [2] concerns hair follicles in monkey skin organ culture. As to the kind of experiment: Enlargement in hair bulb diameter in monkey skin organ culture, Test Example 8. The class given is cell-based, Cynomolgus monkey (Macaca fascicularis). The following applies: culturing for 30 days, FIGS. 6 and 7. The procedure:
The dorsal skin of a Cynomolgus monkey (Macaca fascicularis) (male, 6 years old) was collected and divided into pieces (5 mm×8 mm) under a stereoscopic microscope. Then each skin tissue piece was cultured in William's Medium E (Invitrogen) to which no compound was added or Compound 7 or Compound 3 was added and which contained 10 μg/ml of insulin (Sigma) and 10 ng/ml of hydrocortisone (Kurabo).
On the 30th day of the culturing, all follicles contained in each skin tissue piece were separated and the diameter of bulbs was measured under a stereoscopic microscope.
FIGS. 6 and 7 show the results. In these figures, each numerical value means mean±S.E. of bulb diameters of all follicles contained in each skin tissue piece. To compare the control group with the test groups, Student's t-test was employed: • *:P<0.05.

In test [3] the test system is WNT-5A mRNA. Description: Decrease in WNT-5A mRNA in monkey skin organ culture (RT-PCR), Test Example 6. The format is cell-based, Cynomolgus monkey (Macaca fascicularis). The following applies: 40-cycle PCR, hair follicles, 11th day of culturing, FIG. 4. As to the method: The dorsal skin of a Cynomolgus monkey (Macaca fascicularis) (male, 6 years old) was collected and divided into pieces (5 mm×8 mm) under a stereoscopic microscope. Then each skin tissue piece was cultured in William's Medium E (Invitrogen) to which no compound was added or Compound 7 or Compound 3 was added and which contained 10 μg/ml insulin (Sigma) and 10 ng/ml hydrocortisone (Kurabo).
On the 11th day of the culturing, hair follicles were separated from each skin tissue piece and total RNAs were extracted by using TRIzol reagent (Invitrogen). Using 200 ng portions of the total RNAs, 0.4 μM portions of primers specific to WNT-5A or glyceraldehyde3-phosphate dehydrogenase (GAPDH) [WNT-5A sense: AATGTCTTCCAAGTTCTTCCTAGTGGC (SEQ ID NO-8), WNT-5A antisense: GATGTCGGAATTGATACTGGCA (SEQ ID NO:9), GAPDH sense: ACCACAGTCC ATGCCATCAC (SEQ ID NO:10) and GAPDH antisense: TCCACCACCC TGTTGCTGTA (SEQ ID NO:11)] and SUPERSCRIPT One-Step RT-PCT with PLATINUM Taq (Invitrogen), RT-PCR was cared out in accordance with the protocol attached to SUPERSCRIPT One-Step RT-PCT with PLATINUM Taq. In brief, first strand synthesis was carried out at 50° C. for 30 minutes in a reaction system of 25 μl in total volume in accordance with the protocol attached to SUPERSCRIPT One-Step RT-PCT with PLATINUM Taq. […]

Test [4] has as its system Human dermal papilla cells. Description: Dermal papilla cell growth promoting activity (WST-1, spheroid culture), Test Example 5. The format is cell-based. The following applies: for activity at 1 µM / activity at 4 µM / activity at 16 µM: Homo sapiens, Human dermal papilla cell, 72 hours, average of 3 wells, read-out: ΔO.D. 450 nm/620 nm (% of control). The procedure: as §1
The dermal papilla cells in passage 5 were sowed in a 96-well plate for spheroid culture to give a density of 1.5×10^4 cells/well and cultured overnight. Then, the medium was replaced by a medium to which no compound was added or a medium containing the compound and the culture was continued for additional 72 hours. After the completion of the culture, cells were counted by using a Cell Counting Kit (Wako Pure Chemicals). Five hours before the completion of the culture, WST-1 reagent at 1/10 amount per medium was added to each medium and then the optical density (O.D. 450 nm/620 nm) of the medium was measured at the completion of the culture. A positive correlation was observed between the cell number and optical density within the range of 0.25 to 4×10^4 cells/well.
In this table, each numerical value means an average of 6 wells (control group) or 3 wells (test groups). To compare the control group to the test groups, Student's t-test was employed: • *:P<0.05, **:P<0.01, ***:P<0.001.
A general note: Formazan colour is commonly taken as a measure of viable cells.

The test system of a further test is GAPDH mRNA. Description: GAPDH mRNA amount (QuantiGene bDNA method), Test Example 4. The class given is cell-based. The note with it: Human dermal papilla cell; human dermal papilla cells, 24 hours, concentration at which the mRNA amount is halved, average of 2 wells. The procedure: as §1, §2
As GAPDH-specific probe set, use was made of bDNA probe set for human GAPDH (XenoTech LLC, B0960).
as §3

Test [5] deals with stumptailed macaque suffering from alopecia. Description: Hair growth test on stumptailed macaque, Test Example 9. The format is in vivo, stumptailed macaque (Macaca arctoides). The following applies: lotion containing 0.3% compound. As to the method:
To the forehead of a stumptailed macaque (Macaca arctoides) (male, 14 years old) suffering from alopecia, 1 mL of a lotion containing 0.3% Compound 7 was applied once a day 5 times per week for 6 months. Before the initiation of the application, the alopecia site in the forehead was marked by tattoo. The skin part including the tattoo was photographed before the initiation of the application and after applying for 6 months.

For `C[C@@H]1C[C@@H]2O[C@H]2CC/C=C/C(=O)Cc2c(Cl)c(O)cc(O)c2C(=O)O1` [Compound 3], in the test on WNT-5A mRNA [1], the IC50 worked out at 3.16 µM. Moreover, the “average bulb diameter of the follicles vs control” value in test [2] is “significantly higher; also recorded: enlarges the hair bulb diameter”. In the test on WNT-5A mRNA [3], the “amplified WNT-5A cDNA fragment” value is “remarkably decreased”. In addition, in test [4], the activity at 1 µM stood at 92.9 ± 1.6%, the activity at 4 µM turned out to be 92.9 ± 9.9% and the activity at 16 µM came out at 244 ± 33.4%. The compound also showed an IC50 in the test on GAPDH mRNA of 58 µM.
For the compound `C[C@@H]1C[C@@H]2O[C@H]2CC/C=C/[C@H](O)Cc2c(Cl)c(O)cc(O)c2C(=O)O1` [Compound 7], the IC50 with WNT-5A mRNA [1] turned out to be 4.07 µM. In addition, the “average bulb diameter of the follicles vs control” value in test [2] was “enlarges the hair bulb diameter; also recorded: significantly higher”. Besides, the “amplified WNT-5A cDNA fragment” value in the test on WNT-5A mRNA [3] is reported as “remarkably decreased”. In test [4], the activity at 1 µM was 82.6 ± 3.9%, the activity at 4 µM was determined as 170 ± 10.4% and the activity at 16 µM is 195 ± 12.7%. The “growth of dermal papilla cells” value in test [4] (no concentration stated) was “excellent effect of promoting the growth”. The IC50 in the test on GAPDH mRNA is > 120 µM. Besides, the “alopecia in the forehead” value in test [5] (1 mL once a day 5 times per week for 6 months, FIG. 8) is “clearly ameliorated”. In test [5] (after applying for 6 months), the “thick terminal hairs” value is on record as “increased” and the “vellus hairs” value is on record as “decreased”.

The IC50 is the point on the concentration scale where inhibition reaches its midpoint.
